Results taken from patent US20100172848A1, “SKIN AND SURFACE DISINFECTANT COMPOSITIONS CONTAINING BOTANICALS” (The Trustees Of Columbia University In the City of New York, priority 2008, published 2010).

Assays:
S. aureus [1] = assay: Five-minute kill test of solutions in 10% SDA40-B alcohol and water, colony counts on TSA; assay type: cell-based; settings: 5 minutes contact
Method: Various concentrations of basil oil and acetic, lactic, and citric acids, separately and in combination, were prepared in 10 percent SDA40-B alcohol and water, and adjusted to 100 percent. Except for citric acid, which was added by weight, all other ingredients were measured by volume. 0.9 ml of each solution were dispensed in sterile culture tubes, in triplicate, and 0.1 ml of a 10^7 cfu/ml S. aureus culture was added to the tubes, vortexed, and then, five minutes later, 9.0 ml of drug inactivating medium was added to each tube. Serial dilutions were made with the drug inactivating medium. 0.5 ml of the dilutions were plated on trypticase soy agar (“TSA”) plates. As a control, water containing 10 percent SDA40-B alcohol was processed in parallel. The plates were incubated at 37° C. for 24-48 hours and then the colony counts were determined.
The same methodology was used to test the antimicrobial activity of combinations of citric acid with other essential oils.
Next, the same general protocol was used to test the efficacy of basil, cinammon and citronella oils against a variety of organisms, namely E. coli, P. aeruginosa, MRSA, C. albicans, and S. aureus.
Various concentrations of cinnamon leaf oil and citric acid were dissolved in SDA 40-B alcohol (10%) and water, and adjusted to 100 percent. Except for citric acid, which was added by weight, all other ingredients were measured by volume. 0.9 ml of each solution were dispensed in sterile culture tubes, in triplicate, and 0.1 ml of 10^7 cfu/ml of S. aureus culture was added to the tubes, vortexed, and then, five minutes later, 9.0 ml of drug inactivating medium was added to each tube. Serial dilutions were made with the drug inactivating medium. 0.5 ml of the dilutions were plated on trypticase soy agar (“TSA”) plates. As a control, water containing 10% percent SDA40-B alcohol was processed in parallel. The plates were incubated at 37° C. for 24-48 hours and then the colony counts were determined.
The following experiments were performed to evaluate the antibacterial activity of LG and Citric acid dissolved in alcohol, where the test organism used was S. aureus. Various amounts of LG oil and Citric acid were dissolved in SDA40-B alcohol, and then water was added to result in the EO concentration shown and an alcohol concentration of 10 percent. 0.9 ml of each solution were dispensed in sterile culture tubes, in triplicate, and 0.1 ml of a 10^7 cfulml S. aureus culture was added to the tubes, vortexed, and then, five minutes later, 9.0 ml of drug inactivating medium was added to each tube. Serial dilutions were made with drug inactivating medium. 0.5 ml of the dilutions were plated on trypticase soy agar (“TSA”) plates. As a control, water containing 10 percent SDA40-B alcohol was processed in parallel. The plates were incubated at 37° C. for 24-48 hours and then the colony counts were determined.

S. aureus [2] = assay: Soap rapid antimicrobial activity (30 second kill) with bovine serum; assay type: cell-based
Method: The antimicrobial activity of the above soap was tested in parallel with commercial Softsoap® containing triclosan (Softsoap Antibacterial; Colgate-Palmolive). 0.1 ml of a 10^8 cfu/ml culture of each microbe tested was mixed with 0.1 ml of bovine serum and placed in a sterile culture tube. 0.8 ml of the test soap formulation was added to the tube and vortexed for 30 seconds. Then 9.0 ml DNB was added to neutralize the activity of the soap. The tube was then vortexed and serially diluted with DNB. 0.5 ml of the diluted solution was plated on TSA plates. The same soap base lacking cinnamon oil, citric acid, and orange oil, with phosphate buffered saline mixed with the culture, were used as the controls.
The antimicrobial activity of the above soap was tested in parallel with commercial Dial® Antibacterial Hand Soap) containing triclosan. 0.1 ml of a 10^8 cfu/ml culture of each microbe tested was mixed with 0.1 ml of bovine serum and placed in a sterile culture tube. 0.8 ml of the test soap formulation was added to the tube and vortexed for 30 seconds. Then 9.0 ml DNB was added to neutralize the activity of the soap. The tube was then vortexed and serially diluted with DNB. 0.5 ml of the diluted solution was plated on TSA plates. […]
(§1) A mixture of 0.1 ml of 10^7 cfu/ml of S. aureus culture and 0.1 ml of bovine serum were placed in a sterile culture tube. […] 0.5 ml of the diluted solution was plated on trypticase soy agar plates, incubated at 37° C. for 24-48 hrs and the colony counts were determined. […]
as §1
A mixture of 0.1 ml of 10^8 cfu/ml of S. aureus culture and 0.1 ml of bovine serum were placed in a sterile culture tube. […] 0.5 ml of the diluted solution was plated on trypticase soy agar plates, incubated at 37° C. for 24-48 hrs and the colony counts were determined.

[3] = 10 percent SDA40-B alcohol, control counts 1 × 10^6 to 5 × 10^6 (Table 67)
[4] = 10 percent SDA40-B alcohol, control counts 1 × 10^6 to 5 × 10^6 (Table 66)
[5] = SDA 40-B alcohol (10%) and water (Table 71)

`CC(C)=CCCC(C)=CCCC(C)=CCO` [0.25% Farnesol, Farnesol] was tested, and the “Log 10 reduction” value (S. aureus [1]; [3]) was 0 log10.
For `CC(=O)O` [1% Acetic acid (AA), Acetic acid], the “Log 10 reduction” value (S. aureus [1]; [4]) was 0.2 log10.
`O=C(O)CC(O)(CC(=O)O)C(=O)O` [1% Citric Acid (CA), Citric Acid] was tested, and the “Log 10 reduction” value (S. aureus [1]; [4]) was 0.1 log10, the “Log 10 reduction” value (S. aureus [1]; [3]) was 0.1 log10 and the “Log10 reduction from control” value (S. aureus [1]; 10 percent alcohol, control counts 1 × 10^6 to 5 × 10^6 (Table 79)) was 0.3 log10. For the same compound, the “Log 10 reduction” value (S. aureus [1]; SDA 40-B alcohol (10%) and water (Table 71), listed as Citric Acid 1.0%) was 0.30 log10.
For `CC(O)C(=O)O` (centres unmarked) [1% Lactic acid (LA), Lactic acid], the “Log 10 reduction” value (S. aureus [1]; [4]) was 2.3 log10.
For `CCCCCCCCC(O)CO` (centres unmarked) [1,2 decanediol (0.3%)], the “Log10 reduction from control” value (S. aureus [2]; alkanediol 0.3% w/w where present, control counts 2 × 10^8-5 × 10^8) was 0.6 log10.
`CCCCCCCCC(O)CO` (centres unmarked) [1,2 decanediol(0.5%)] was tested, and the “Log10 reduction from control” value (S. aureus [2]; alkanediol 0.5% w/w where present, soap pH 4.5-4.6, control counts 2 × 10^8-5 × 10^8) was 1.4 log10.
In the case of `O=C(O)CC(O)(CC(=O)O)C(=O)O` [1.0 citric acid], the “Log10 reduction from control” value (S. aureus [2]; compounds (% w/w) in soft soap lacking triclosan, PBS control counts 7 × 10^7-1 × 10^8) is reported as 1.3 log10.
`O=C(O)CC(O)(CC(=O)O)C(=O)O` [Citric Acid 0.5%, Citric Acid] was tested, and the “Log 10 reduction” value (S. aureus [1]; [5]) was 0.20 log10.
`O=C(O)CC(O)(CC(=O)O)C(=O)O` [Citric Acid 0.25%, Citric Acid] was tested, and the “Log 10 reduction” value (S. aureus [1]; [5]) was 0.08 log10.
In the case of `O=C(O)CC(O)(CC(=O)O)C(=O)O` [Citric Acid 0.125%, Citric Acid], the “Log 10 reduction” value (S. aureus [1]; [5]) is reported as 0.02 log10.
For `O=C(O)CC(O)(CC(=O)O)C(=O)O` [Citric Acid 2%, Citric Acid], the “Log 10 reduction” value (S. aureus [1]; [5]) was 0.32 log10.
